Here are results for five compounds from patent US8071598B2, “3,9-diazabicyclo[3.3.1]nonane derivatives and their use as monoamine neurotransmitter re-uptake inhibitors” (Neurosearch A/S, priority 2006, dated 2011).

The target of series [1] is T1, reuptake of serotonine (5-HT) in synaptosomes (Rattus norvegicus, UniProt P31652).
T1 construct: in synaptosomes as described in WO 97/16451; from tissue; host or cells: synaptosomes (brain tissue)
Briefly: Inhibition of serotonine (5-HT) reuptake in synaptosomes. In kind it is biochemical. As for the experimental part:
A number of compounds were tested for their ability to inhibit the reuptake of the monoamine neurotransmitters dopamine (DA) noradrenaline (NA) and serotonine (5-HT) in synaptosomes as described in WO 97/16451.
The test values are given as IC50 (the concentration (μM) of the test substance which inhibits the specific binding of ^3H-DA, ^3H-NA, or ^3H-5-HT by 50%).

The target in series [2] is T2, reuptake of noradrenaline (NA) in synaptosomes (Rattus norvegicus, UniProt Q63380).
T2 construct: in synaptosomes as described in WO 97/16451; from tissue; host or cells: synaptosomes (brain tissue)
T2 sequence (Q63380 1-617): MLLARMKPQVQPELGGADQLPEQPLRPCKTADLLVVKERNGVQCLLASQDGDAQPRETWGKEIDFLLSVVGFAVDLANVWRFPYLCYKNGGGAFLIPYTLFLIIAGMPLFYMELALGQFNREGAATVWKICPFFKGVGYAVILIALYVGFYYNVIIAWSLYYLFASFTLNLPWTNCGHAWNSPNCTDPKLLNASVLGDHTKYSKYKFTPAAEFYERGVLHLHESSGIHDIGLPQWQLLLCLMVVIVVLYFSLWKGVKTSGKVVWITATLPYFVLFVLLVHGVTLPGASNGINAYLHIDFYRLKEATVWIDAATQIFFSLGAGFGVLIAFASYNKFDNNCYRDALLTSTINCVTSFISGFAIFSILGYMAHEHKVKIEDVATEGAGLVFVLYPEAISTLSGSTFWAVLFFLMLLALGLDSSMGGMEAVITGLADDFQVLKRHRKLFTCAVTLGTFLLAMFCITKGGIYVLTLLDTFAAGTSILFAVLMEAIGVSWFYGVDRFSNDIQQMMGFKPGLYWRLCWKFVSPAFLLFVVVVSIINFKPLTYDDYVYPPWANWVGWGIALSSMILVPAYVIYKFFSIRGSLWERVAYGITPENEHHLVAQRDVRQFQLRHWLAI
The series is described as follows: Inhibition of noradrenaline (NA) reuptake in synaptosomes. It is filed as biochemical.

For series [3], the target named is T3, reuptake of dopamine (DA) in synaptosomes (Rattus norvegicus, UniProt P23977).
T3 construct: in synaptosomes as described in WO 97/16451; from tissue; host or cells: synaptosomes (brain tissue)
T3 sequence (P23977 whole entry): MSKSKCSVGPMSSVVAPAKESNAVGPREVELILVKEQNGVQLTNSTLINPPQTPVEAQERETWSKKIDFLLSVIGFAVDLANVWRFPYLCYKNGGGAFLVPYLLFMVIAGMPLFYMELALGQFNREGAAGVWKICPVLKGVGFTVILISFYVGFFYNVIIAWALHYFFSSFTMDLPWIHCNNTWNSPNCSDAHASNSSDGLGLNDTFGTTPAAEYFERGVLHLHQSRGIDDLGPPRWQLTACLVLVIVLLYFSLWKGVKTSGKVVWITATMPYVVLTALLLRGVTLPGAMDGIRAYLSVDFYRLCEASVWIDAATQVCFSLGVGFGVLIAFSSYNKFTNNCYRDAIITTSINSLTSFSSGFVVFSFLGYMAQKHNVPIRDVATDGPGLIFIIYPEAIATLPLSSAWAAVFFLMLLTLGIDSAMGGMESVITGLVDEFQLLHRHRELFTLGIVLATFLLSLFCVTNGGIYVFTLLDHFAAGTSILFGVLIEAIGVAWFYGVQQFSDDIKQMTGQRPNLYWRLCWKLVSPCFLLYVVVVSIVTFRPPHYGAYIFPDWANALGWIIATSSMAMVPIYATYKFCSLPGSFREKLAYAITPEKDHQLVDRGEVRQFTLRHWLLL
The series is described as follows: Inhibition of dopamine (DA) reuptake in synaptosomes. It is filed as biochemical.

The term melting point denotes the temperature of the solid-liquid transition. Usually IC50 stands for the concentration at which inhibition is half-maximal.

Molecules are shown by their SMILES. Structures can show the parent of a compound that is named as a salt. Where two headings read alike, the source gives them in different places.

T1 sequence (P31652 whole entry): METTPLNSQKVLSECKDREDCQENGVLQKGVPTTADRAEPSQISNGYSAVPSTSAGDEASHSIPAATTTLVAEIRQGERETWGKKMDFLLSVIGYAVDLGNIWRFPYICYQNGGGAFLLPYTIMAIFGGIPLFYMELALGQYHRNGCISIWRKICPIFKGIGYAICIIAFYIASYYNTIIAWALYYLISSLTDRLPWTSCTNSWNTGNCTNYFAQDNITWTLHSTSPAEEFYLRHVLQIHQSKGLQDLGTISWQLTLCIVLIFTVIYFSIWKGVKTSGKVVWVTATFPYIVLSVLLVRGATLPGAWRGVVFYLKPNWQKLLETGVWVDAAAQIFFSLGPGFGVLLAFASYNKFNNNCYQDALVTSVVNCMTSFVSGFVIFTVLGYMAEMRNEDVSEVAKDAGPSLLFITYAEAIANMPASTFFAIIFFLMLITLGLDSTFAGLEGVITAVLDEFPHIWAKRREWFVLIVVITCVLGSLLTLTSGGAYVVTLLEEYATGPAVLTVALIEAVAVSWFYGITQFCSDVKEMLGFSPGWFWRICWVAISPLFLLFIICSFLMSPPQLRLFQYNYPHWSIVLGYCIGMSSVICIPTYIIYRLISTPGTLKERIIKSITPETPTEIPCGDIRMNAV

`COc1ccc2cc(N3CC4CCCC(C3)N4C)ccc2c1` (as salt: fumaric acid salt) [1st compound of Method C, 3-(6-Methoxy-naphthalen-2-yl)-9-methyl-3,9-diaza-bicyclo[3.3.1]nonane] gave a melting point of 190 to 198.3 °C.
`Clc1ccc(N2CC3CCCC(C2)N3)cc1Cl` (as salt: hydrochloric acid salt) [1st compound of Method B, 3-(3,4-Dichloro-phenyl)-3,9-diaza-bicyclo[3.3.1]nonane] returned a melting point of 295.4 °C.
As to `Clc1ccc(N2CC3CCCC(C2)N3)cc1Cl` [1st compound of Method B, 3-(3,4-Dichloro-phenyl)-3,9-diaza-bicyclo[3.3.1]nonane], the half-maximal inhibitory concentration (IC50) worked out at 0.69 nM in series [1], 7.4 nM in series [2] and 160 nM in series [3].
As to `COc1ccc2cc(N3CC4CCCC(C3)N4C)ccc2c1` [1st compound of Method C, 3-(6-Methoxy-naphthalen-2-yl)-9-methyl-3,9-diaza-bicyclo[3.3.1]nonane], the IC50 is 8.1 nM in series [1]; 19 nM in series [2]; 230 nM in series [3] (synaptosomes, 3H-DA, read-out: DA-uptake IC50).
For the compound `CN1C2CCCC1CN(c1ccc3cc(O)ccc3c1)C2` [3rd compound of Method C, 6-(9-Methyl-3,9-diaza-bicyclo[3.3.1]non-3-yl)-naphthalen-2-ol], the 50% inhibitory concentration (IC50) is 7.9 nM in series [1]; 110 nM in series [2] (synaptosomes, 3H-NA, read-out: NA-uptake IC50); 54 nM in series [3].
